Data on 11 compounds can be found in patent US20260200892A1, “CANNABINOID RECEPTOR 2 MODULATORS” (Hoffmann-La Roche Inc., priority 2023, published 2026).

SMILES strings stand for the structures. Read-outs that look alike come from different tables or passages of the source.

The target in test [1] is T1, human CB2 receptor (hCB2R) (Homo sapiens, UniProt P34972).
T1 construct: expressed in transfected cells; membranes
The test can be described thus: TR-FRET hCB2R binding assay.

Test [2] deals with T2, CB2 receptor (hCB2R), CHO cell line stably overexpressing CB2 receptor (Homo sapiens, UniProt P34972).
T2 construct: expressed in transfected cells; host or cells: CHO cell line stably overexpressing CB2 receptor (G418 selection)
Put plainly: cAMP hCB2R functional assay (HTRF). The following applies: CHO cells overexpressing CB2 receptor, forskolin; for EC50: means ± SEM of 2-3 independent experiments; for Functionality: normalized to Emax of CP55940 (100%). The class given is cell-based. Here is the method: cAMP hCB2R Functional Assay
The Homogeneous Time Resolved Fluorescence (HTRF) Assays
The homogeneous time-resolved fluorescence (HTRF) cAMP assay was conducted according to the manufacturer's protocol for the cAMP-Gs Dynamic kit (Cisbio). Briefly, the CHO cell line stably overexpressing CB2 receptor were maintained in Ham's F12 supplemented with 10% FBS, 100 U/ml penicillin and 100 μg/ml streptomycin (Gibco-ThermoFisher) and 400 μg/ml G418 (ThermoFisher). For CB2 compounds test, harvest the cells with Cell Dissociation Buffer and re-suspend the cells in F-12 K at 0.4*10^6 cells/mL, and dispense cells into 384-well low volume plates at 2000 cells/5 μL per well. The cells were stimulated with compounds diluted in Stimulation Buffer (2.5 μL/well) for 15 min at room temperature. And then followed by the addition of 2.5 μL 25 μM forsklin. After 15 mins incubation, reactions were stopped by 5 μL/well cAMP-d2 conjugate working solution followed by 5 μL/well of anti-cAMP cryptate working solution. After incubation for 1 h at room temperature, the plates were read in a PerkinElmer Envision reader for time-resolved fluorescence resonance energy transfer detection at 620 nm and 665 nm.
Quantification and Statistical Analysis
All HTRF ratio data sets of test compounds were normalized to the Emax of CP55940 (100%) and obtained the means±standard error of the mean (SEM) of 2-3 independent experiments performed in technical replicates.
(In general: TR-FRET usually uses a lanthanide donor and a delayed reading to cut background.)

The target in another test is hCB1R (Homo sapiens, UniProt P21554). The test can be described thus: hCB1R binding (Kd hCB1R, Table 1).
[3] abbreviates: TR-FRET, membranes of SNAP-tagged human CB2R HEK293-TR cells, 100 μM GppNHp, nonspecific binding with SR144528, read-out: Kd hCB2R.

One may read the Kd as the concentration at which binding is half-saturated. As a reminder, the EC50 is the concentration giving half of the maximal effect. The low end stands for higher potency in that assay, the high end for lower potency in that assay.

T1 sequence (P34972 whole entry): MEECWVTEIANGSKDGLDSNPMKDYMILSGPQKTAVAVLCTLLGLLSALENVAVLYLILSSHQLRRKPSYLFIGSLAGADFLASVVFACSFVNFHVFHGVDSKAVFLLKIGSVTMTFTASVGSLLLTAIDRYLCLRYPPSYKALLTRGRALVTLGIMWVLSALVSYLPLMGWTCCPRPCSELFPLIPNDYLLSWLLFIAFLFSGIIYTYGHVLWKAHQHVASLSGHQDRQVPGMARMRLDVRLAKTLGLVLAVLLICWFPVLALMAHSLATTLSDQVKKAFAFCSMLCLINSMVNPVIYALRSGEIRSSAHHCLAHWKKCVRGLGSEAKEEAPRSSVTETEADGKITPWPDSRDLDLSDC
T2 sequence (P34972 whole entry): as above
Sequence of hCB1R (P21554 whole entry): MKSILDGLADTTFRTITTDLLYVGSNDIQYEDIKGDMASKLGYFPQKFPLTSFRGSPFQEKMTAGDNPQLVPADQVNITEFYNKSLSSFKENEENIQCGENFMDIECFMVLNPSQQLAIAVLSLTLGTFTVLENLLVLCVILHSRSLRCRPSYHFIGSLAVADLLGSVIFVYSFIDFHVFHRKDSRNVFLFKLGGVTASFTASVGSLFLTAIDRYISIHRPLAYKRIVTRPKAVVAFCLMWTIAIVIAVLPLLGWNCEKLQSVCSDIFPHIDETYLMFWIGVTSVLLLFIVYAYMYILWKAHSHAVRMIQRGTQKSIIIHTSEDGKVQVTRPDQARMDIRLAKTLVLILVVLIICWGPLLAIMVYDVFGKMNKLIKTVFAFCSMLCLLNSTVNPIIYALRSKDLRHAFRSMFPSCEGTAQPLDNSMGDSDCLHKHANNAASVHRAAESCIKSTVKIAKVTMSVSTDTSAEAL

With `COc1cc(C(C)(C)[C@@H](CCCCCN=[N+]=[N-])c2ccccc2)cc(OC)c1[C@H]1C=C(CN)[C@H]2C[C@@H]1C2(C)C` [Example 14, ((1S,4S,5S)-4-(4-((S)-8-azido-2-methyl-3-phenyloctan-2-yl)-2,6-dimethoxyphenyl)-6,6-dimethylbicyclo[3.1.1]hept-2-en-2-yl)methanamine], the Kd in test [1] (setting [3]) is 476 nM. Besides, in test [2], a half-maximal effect (EC50) was put at 2690 nM and the Functionality result is recorded as “inverse agonist”.

On to `COc1cc(C(C)(C)[C@H](CCCCCN=[N+]=[N-])c2ccccc2)cc(OC)c1[C@H]1C=C(CN)[C@H]2C[C@@H]1C2(C)C` [Example 15, ((1S,4S,5S)-4-(4-((R)-8-azido-2-methyl-3-phenyloctan-2-yl)-2,6-dimethoxyphenyl)-6,6-dimethylbicyclo[3.1.1]hept-2-en-2-yl)methanamine], for which, in test [1] (setting [3]), the Kd was 39.1 nM. Besides, in test [2], it took 112 nM to reach a half-maximal effect (EC50) and the Functionality result was “inverse agonist”.

In the case of `CCCCCC(c1ccccc1)C(C)(C)c1cc(OC)c([C@H]2C=C(CNC(=O)CCCCC[n+]3cc(S(=O)(=O)[O-])ccc3/C=C/c3cc4ccc(N(CC)CC)cc4oc3=O)[C@H]3C[C@@H]2C3(C)C)c(OC)c1` (stereo partly drawn) [Example 16, 6-((E)-2-(7-(diethylamino)-2-oxo-2H-chromen-3-yl)vinyl)-1-(6-((((1S,4S,5S)-4-(2,6-dimethoxy-4-(2-methyl-3-phenyloctan-2-yl)phenyl)-6,6-dimethylbicyclo[3.1.1]hept-2-en-2-yl)methyl)amino)-6-oxohexyl)pyridin-1-ium-3-sulfonate], the Kd in test [1] (setting [3]) turned out to be 214 nM.

In the case of `C#CCCC(=O)NCC1=C[C@H](c2c(OC)cc(C(C)(C)[C@@H](CCCCCN=[N+]=[N-])c3ccccc3)cc2OC)[C@@H]2C[C@H]1C2(C)C` [Example 18, N-(((1S,4S,5S)-4-(4-((S)-8-azido-2-methyl-3-phenyloctan-2-yl)-2,6-dimethoxyphenyl)-6,6-dimethylbicyclo[3.1.1]hept-2-en-2-yl)methyl)pent-4-ynamide], in test [1] (setting [3]), the Kd turned out to be 2.1 nM. Also, in test [2], the EC50 was 40.7 nM and the Functionality entry is “inverse agonist”.

As to `C#CCCC(=O)NCC1=C[C@H](c2c(OC)cc(C(C)(C)[C@H](CCCCCN=[N+]=[N-])c3ccccc3)cc2OC)[C@@H]2C[C@H]1C2(C)C` [Example 19, N-(((1S,4S,5S)-4-(4-((R)-8-azido-2-methyl-3-phenyloctan-2-yl)-2,6-dimethoxyphenyl)-6,6-dimethylbicyclo[3.1.1]hept-2-en-2-yl)methyl)pent-4-ynamide], in test [1] (setting [3]), the Kd was found to be 0.42 nM. Also, in test [2], the EC50 was 33.1 nM and the Functionality result is “inverse agonist”.

`CCN(CC)c1ccc2cc(/C=C/c3ccc(S(=O)(=O)[O-])c[n+]3CCCCCC(=O)NCC3=C[C@H](c4c(OC)cc(C(C)(C)C(CCCCCN=[N+]=[N-])c5ccccc5)cc4OC)[C@@H]4C[C@H]3C4(C)C)c(=O)oc2c1` (stereo partly drawn) [Example 20, 1-(6-((((1S,4S,5S)-4-(4-(8-azido-2-methyl-3-phenyloctan-2-yl)-2,6-dimethoxyphenyl)-6,6-dimethylbicyclo[3.1.1]hept-2-en-2-yl)methyl)amino)-6-oxohexyl)-6-((E)-2-(7-(diethylamino)-2-oxo-2H-chromen-3-yl)vinyl)pyridin-1-ium-3-sulfonate]: the Kd in test [1] (setting [3]) is 67.9 nM.

In the case of `CCN(CC)c1ccc2cc(/C=C/c3ccc(S(=O)(=O)[O-])c[n+]3CCCCCC(=O)NCC3=C[C@H](c4c(OC)cc(C(C)(C)[C@@H](CCCCCN=[N+]=[N-])c5ccccc5)cc4OC)[C@@H]4C[C@H]3C4(C)C)c(=O)oc2c1` [Example 21, 1-(6-((((1S,4S,5S)-4-(4-((S)-8-azido-2-methyl-3-phenyloctan-2-yl)-2,6-dimethoxyphenyl)-6,6-dimethylbicyclo[3.1.1]hept-2-en-2-yl)methyl)amino)-6-oxohexyl)-6-((E)-2-(7-(diethylamino)-2-oxo-2H-chromen-3-yl)vinyl)pyridin-1-ium-3-sulfonate], the Kd in test [1] (setting [3]) came to 162 nM. In test [2], the EC50 was 339 nM and the Functionality result was “inverse agonist”.

Take `COc1cc(C(C)(C)[C@@H](CCCCCN=[N+]=[N-])c2ccccc2)cc(OC)c1[C@H]1C=C(CNC(=O)CCCCCCNc2ccc([N+](=O)[O-])c3nonc23)[C@H]2C[C@@H]1C2(C)C` [Example 23, N-(((1S,4S,5S)-4-(4-((S)-8-azido-2-methyl-3-phenyloctan-2-yl)-2,6-dimethoxyphenyl)-6,6-dimethylbicyclo[3.1.1]hept-2-en-2-yl)methyl)-7-((7-nitrobenzo [c][1,2,5]oxadiazol-4-yl)amino)heptanamide]: the Kd in test [1] (setting [3]) came out at 158 nM. The Functionality entry in test [2] is given as “Antagonist”.

With `COc1cc(C(C)(C)[C@H](CCCCCN=[N+]=[N-])c2ccccc2)cc(OC)c1[C@H]1C=C(CNC(=O)CCCCCNC(=O)c2ccc3c(c2)C(=O)OC32c3ccc(N(C)C)cc3Oc3cc(N(C)C)ccc32)[C@H]2C[C@@H]1C2(C)C` [Example 25, N-(6-((((1S,4S,5S)-4-(4-((R)-8-azido-2-methyl-3-phenyloctan-2-yl)-2,6-dimethoxyphenyl)-6,6-dimethylbicyclo[3.1.1]hept-2-en-2-yl)methyl)amino)-6-oxohexyl)-3′,6′-bis(dimethylamino)-3-oxo-3H-spiro[isobenzofuran-1,9′-xanthene]-5-carboxamide], the Kd in test [1] (setting [3]) is 2.78 nM; at hCB1R it was 396 nM.

As for `COc1cc(C(C)(C)[C@H](CCCCCN=[N+]=[N-])c2ccccc2)cc(OC)c1[C@H]1C=C(CNC(=O)CCCCCNC(=O)c2ccc3c(c2)C2(OC3=O)c3ccc(O)cc3Oc3cc(O)ccc32)[C@H]2C[C@@H]1C2(C)C` [Example 26, N-(6-((((1S,4S,5S)-4-(4-((R)-8-azido-2-methyl-3-phenyloctan-2-yl)-2,6-dimethoxyphenyl)-6,6-dimethylbicyclo[3.1.1]hept-2-en-2-yl)methyl)amino)-6-oxohexyl)-3′,6′-dihydroxy-3-oxo-3H-spiro[isobenzofuran-1,9′-xanthene]-6-carboxamide], the Kd in test [1] (setting [3]) came out at 30.3 nM; at hCB1R, 1280 nM.

In test [1], `COc1cc(C(C)(C)[C@H](CCCCCN=[N+]=[N-])c2ccccc2)cc(OC)c1[C@H]1C=C(CNC(=O)CCCCCNC(=O)CCc2ccc3n2[B-](F)(F)[N+]2=C(c4ccc[nH]4)C=CC2=C3)[C@H]2C[C@@H]1C2(C)C` [Example 28, N-(((1S,4S,5S)-4-(4-((R)-8-azido-2-methyl-3-phenyloctan-2-yl)-2,6-dimethoxyphenyl)-6,6-dimethylbicyclo[3.1.1]hept-2-en-2-yl)methyl)-6-(3-(5,5-difluoro-7-(1H-pyrrol-2-yl)-5H-514,614-dipyrrolo[1,2-c:2′,1′-f][1,3,2]diazaborinin-3-yl)propanamido)hexanamide] returned a Kd of 44.7 nM.
